Reference: patent US9883691B2, “Food and beverage products containing 1,3-propanediol and methods of modifying flavor release using 1,3-propanediol” (Kraft Foods Group Brands LLC, priority 2012, dated 2018)

How the values were obtained:
Format in all cases: physicochemical
[1] = PTR-MS headspace release in neat solvent, solvent/solvent experiment (Example 5); design: key to Release Differences: “Z” indicates that 1,3-propanediol had higher equilibrium maximum (meaning more of the flavor was released in 1,3-propanediol); “P” indicates that propylene glycol had higher equilibrium maximum; “-” indicates no statistical difference (95% significance) between the two samples; conditions: 1.5 hrs equilibration; for Release Differences: 1,3-propanediol versus propylene glycol as sole solvent, 95% significance
[2] = PTR-MS headspace release with various non-aqueous liquids (diols) at 0.05:100 (Example 3); conditions: ratio 0.05:100; for PTR-MS headspace release in 1,3-butanediol: non-aqueous liquid 1,3-butanediol; for PTR-MS headspace release in 1,3-butanediol / PTR-MS headspace release in 1,3-propanediol / PTR-MS headspace release in 1,4-butanediol / PTR-MS headspace release in 1,7-heptanediol / PTR-MS headspace release in Propylene glycol: diluted in water; for PTR-MS headspace release in 1,3-propanediol: non-aqueous liquid 1,3-propanediol; for PTR-MS headspace release in 1,4-butanediol: non-aqueous liquid 1,4-butanediol; for PTR-MS headspace release in 1,7-heptanediol: non-aqueous liquid 1,7-heptanediol; for PTR-MS headspace release in Propylene glycol: non-aqueous liquid propylene glycol
In short: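 Flavour compounds were diluted in water to a final 8 ppm each, with furfuryl mercaptan at 1.6 ppm, keeping the compound to diol ratio at 0.05:100 across several diols. Headspace was measured by PTR-MS, and % suppression was computed as (I1,3-diol − Ialternate diol)/Ialternate diol × 100.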

[3] = PTR-MS real-time headspace release, watermelon flavor model in water (Example 1); design: Sample A (PG) Mean / Sample B (1,3-propanediol) Mean: unit not given here; conditions: for Sample B (1,3-propanediol) Mean / Sample A (PG) Mean: PTR-MS headspace, diluted in water, 90 minutes equilibration, mean of three; for Sample B (1,3-propanediol) Mean: watermelon flavor concentrate in 1,3-propanediol; for Sample A (PG) Mean: watermelon flavor concentrate in propylene glycol; for Percent Release Difference: Sample B (1,3-propanediol) relative to Sample A (PG)
Description: The impact of 1,3-propanediol on the release of flavor compounds can be analyzed by Proton Transfer Reaction Mass Spectrometry (PTR-MS; model TOF-8000 from Ionicon Analytik Inc.), where real-time headspace release of volatiles is measured. A sampling apparatus is needed in conjunction with the PTR-MS inlet to prevent variations caused by headspace kinetics. By one exemplary approach, the sampling apparatus includes a 4 ounce sample vessel equipped with a 2-hole lid which may be sealed by an adhesive film to allow equilibration. […]. The holes are equal sized (˜2 mm diameter) and match the outer diameter of the PTR-MS inlet line. The flow of the dilution gas into the vessel is regulated by the vacuum and proportional valve of the PTR-MS inlet system. The sample vessel has a base diameter of 47 mm and is 45 mm high, of which 8 mm of height is occupied by the sample in the vessel in these experiments. The 2 holes in the lid are equidistant from the edge of the vessel (˜20 mm) and about 30 mm from each other. The PTR-MS inlet is braced by clamps in a fixed position vertically above the laboratory bench (˜55 mm) and a silicone rubber depth gauge is affixed to the PTR-MS inlet tubing and set at 18 mm. The PTR-MS inlet is thus consistently oriented in a vertical position 18 mm below the inside lid of the vessel and 19 mm above the sample in the vessel. The sample vessel is then held in place during sampling according to the depth gauge on the inlet line and the vessel is subsequently supported on the bench by a 10 mm plastic spacer.
15 grams of the sample to be tested (e.g., food or beverage product containing 1,3-propanediol) are added to the vessel. The vessel is sealed and allowed to equilibrate at room temperature (˜22° C.) for 90 minutes. At the time of sampling, the seal is removed from both the sampling hole and the dilution gas hole in the lid and the vessel is immediately affixed to the PTR-MS inlet via the sampling hole. The real-time released flavor is measured from the headspace of the sample vessel for two minutes (according to the conditions listed in Table 1 below). A comparative sample is prepared that is otherwise identical to the test sample but contains propylene glycol or water instead of 1,3-propanediol. The comparative sample is then analyzed in triplicate by PTR-MS using the above-described procedure. The data can be analyzed using PTR-MS Viewer, Version 3.0.0.101 (Ionicon Analytik G.m.b.H). The point of maximum intensity for each compound of interest can be determined and recorded according to the PTR-MS Viewer software. The maximum intensity in counts over the timescale for each compound of interest can be used for data analysis as it reflects the static equilibrium headspace concentration in the system at the moment of seal removal. Due to the necessity of a dilution gas, the volatile concentration decreases over time as the compounds of interest re-equilibrate to a state of dynamic equilibrium in the headspace.
[…]. Sample A was prepared with 20 grams watermelon flavor concentrate and 80 grams propylene glycol. Sample B was prepared with 20 grams watermelon flavor concentrate and 80 grams 1,3-propanediol. Each of the samples was further diluted by adding 0.08 grams of each diluted concentrate to 99.92 grams water to provide a flavor water solution.
The diluted samples were analyzed by Proton Transfer Reaction Mass Spectrometry (PTR-MS; model TOF-8000 from Ionicon Analytik Inc.) for real-time headspace release volatiles measurement. Samples were analyzed in triplicate. […]. […].

CC=O [Acetaldehyde]
Release Differences [1]: Z | release in 1,3-propanediol versus propylene glycol, solvent/solvent [1]: released faster (as evidenced by higher headspace concentration) in 1,3-propanediol | PTR-MS headspace release in 1,3-butanediol [2]: 157.0 | PTR-MS headspace release in 1,3-propanediol [2]: 104.00 | PTR-MS headspace release in 1,4-butanediol [2]: 196.5 | PTR-MS headspace release in 1,7-heptanediol [2]: 206.5 | PTR-MS headspace release in Propylene glycol [2]: 165.85 | Percent suppression by 1,3-butanediol relative to 1,4-butanediol [2]: −25.2% | Sample B (1,3-propanediol) Mean [3]: 877 | Sample A (PG) Mean [3]: 803.33 | Percent Release Difference [3]: 9.1%

CCCC(=O)OCC [Ethyl butyrate]
Release Differences [1]: Z | PTR-MS headspace release in 1,3-butanediol [2]: 141.5 | PTR-MS headspace release in 1,3-propanediol [2]: 46.20 | PTR-MS headspace release in 1,4-butanediol [2]: 239.3 | PTR-MS headspace release in 1,7-heptanediol [2]: 223.5 | PTR-MS headspace release in Propylene glycol [2]: 40.20 | Percent suppression by 1,3-butanediol relative to 1,4-butanediol [2]: −69.10% | Sample B (1,3-propanediol) Mean [3]: 5827 | Sample A (PG) Mean [3]: 10983 | Percent Release Difference [3]: −46.9%

O=Cc1ccccc1 [Benzaldehyde]
Release Differences [1]: P | PTR-MS headspace release in 1,3-butanediol [2]: 250.0 | PTR-MS headspace release in 1,3-propanediol [2]: 13.20 | PTR-MS headspace release in 1,4-butanediol [2]: 354.0 | PTR-MS headspace release in 1,7-heptanediol [2]: 357.5 | PTR-MS headspace release in Propylene glycol [2]: 136.25 | Percent suppression by 1,3-butanediol relative to 1,4-butanediol [2]: −41.6% | Sample B (1,3-propanediol) Mean [3]: 32.00 | Sample A (PG) Mean [3]: 39.67 | Percent Release Difference [3]: −19.3%
